Test results taken from patent US10702603B2 (priority 2012, dated 2020).
Where “and” joins values, the source holds several entries; their conditions need not be identical. Identical values can stand only once. Like-named read-outs stand apart in the source and are kept apart here.

Tests used:
[1] = cited from earlier work
[2] = test system: Xenotropic Murine Leukemia Virus (XMuLV); assay type: cell-based
[3] = test system: XMuLV; test: Viral inactivation study with TRITON X-100 using 3 different antibodies
Procedure: Viral inactivation studies were performed with TRITON X-100® at 1-2× CMC (0.02% w/w) at ambient temperature using 3 different antibodies. TRITON X-100® is a mixture with a range of molecular lengths, so the CMC has a range between 0.01-0.02% w/w at 25° C. in water.

| Molecule | CMC ([1]; […]) | Log Reduction Factor (120 min) [2] | further results |
| --- | --- | --- | --- |
| C[C@H](CCC(=O)NCCC[N+](C)(C)CCCS(=O)(=O)[O-])[C@H]1CC[C@H]2[C@@H]3[C@H](O)C[C@@H]4C[C@H](O)CC[C@]4(C)[C@H]3C[C@H](O)[C@]12C [CHAPS, 3-[(3-cholamidopropyl)dimethylammonio]-1-propanesulfonate] | 6 to 10 mM | – | – |
| C[C@H](CCC(=O)NCCC[N+](C)(C)CC(O)CS(=O)(=O)[O-])[C@H]1CC[C@H]2[C@@H]3[C@H](O)C[C@@H]4C[C@H](O)CC[C@]4(C)[C@H]3C[C@H](O)[C@]12C (stereo partly shown) [CHAPSO, 3-([3-Cholamidopropyl]dimethylammonio)-2-hydroxy-1-propanesulfonate] | 8 mM | – | – |
| CCCCCCCCCCCC[N+](C)(C)CCCCCCCCCCC(=O)[O-] [DDMAU, N-Dodecyl-N,N-(dimethylammonio)undecanoate] | 0.13 mM | – | – |
| CCCCCCCCCCCC[N+](C)(C)CC(=O)[O-] [EMPIGEN BB, N,N-Dimethyl-N-dodecylglycine betaine] | 1.6 to 2.1 mM | – | – |
| CCCCCCCCCCCC[N+](C)(C)[O-] [LDAO, N,N-dimethyldodecylamine N-oxide] | 1 to 2 mM | 4 | Log Reduction Factor (LRF) [2]: 3.14 and 3.07 and 3.08 |
| CCCCCCCCCCCC[N+](C)(C)CCCS(=O)(=O)[O-] [Sulfobetaine-12, N-dodecyl-N,N-dimethyl-3-ammonio-1-propanesulfonate] | – | 4.2 | – |
| CCCCCCCCCCCCCC[N+](C)(C)CCCS(=O)(=O)[O-] [Sulfobetaine-14, N-tetradecyl-N,N-dimethyl-3-ammonio-1-propanesulfonate] | – | 4.7 | – |
| CCCCCCCCCCCCCCCC[N+](C)(C)CCCS(=O)(=O)[O-] [Sulfobetaine-16, N-hexadecyl-N,N-dimethyl-3-ammonio-1-propanesulfonate] | – | 4.2 | Log Reduction Factor (LRF) [2]: 3.16 and 3.15 and 3.14 |
| CCCCCCCC[N+](C)(C)CCCS(=O)(=O)[O-] [ZWITTERGENT 3-08, n-Octyl-N,N-dimethyl-3-ammonio-1-propanesulfonate] | 330 mM | – | – |
| CCCCCCCCCC[N+](C)(C)CCCS(=O)(=O)[O-] [ZWITTERGENT 3-10, n-Decyl-N,N-dimethyl-3-ammonio-1-propanesulfonate] | 25 to 40 mM | – | – |
| TRITON X-100 | – | – | CMC ([1]; at 25° C. in water): 0.01-0.02 % w/w; viral inactivation ([3]; 0.25-0.5× CMC (0.006% w/w), below the CMC): No viral inactivation; XMuLV inactivation ([3]; 1-2× CMC (0.02% w/w), ambient temperature, within 45 min): > 4 log |
